Data on one molecule can be found in patent publication US10501473B2, “Fused heterocyclic ring compounds and method of treating retinal disease using same” (THE INDUSTRY & ACADEMIC COOPERATION IN CHUNGNAM NATIONAL …, priority 2014, dated 2019).

Data set [1] can be described thus: Solubility in water of doxycycline forms. Format: physicochemical. To be noted: listed as HC.
The test system of data set [2] is retinal degeneration rabbit model. Kind of data set: Drug efficacy by ERG (electroretinography) 1. The class given is in vivo. The conditions noted are these: for response compared to normal (100%) / Drug efficacy (%): ERG. On the procedure:
The normal rabbit was anesthetized, which was adapted for 20 minutes in a dark room. Retinal potential difference was measured by ERG equipment. Electroretinography is a method to observe the response of photoreceptor cells with two light intensities. Particularly, A and B waves were measured from 100 to 10000 mcd, and the retinal potential difference measured at 3000 mcd. Drug efficacy was evaluated by observing the photoreceptor cells, for which the stronger response to wave A was selected.
Evaluation of candidate substances for dry macular degeneration was performed using a retinal degeneration rabbit model. The compounds of Comparative Examples 2 and 3 were used as comparative compounds. […] The compound of Comparative Example 3 was orally administered once a day (10 mg/rabbit, dissolved in saline).

The test system of data set [3] is dry macular degeneration pig model. Kind of data set: Drug efficacy by fundoscopy. The conditions noted are these: IAA 10 mg/kg iv, 7 days after induction, FIG. 13. Format: in vivo. As to the method:
First, to construct a dry macular degeneration pig model, 10 mg/kg of iodoacetic acid (IAA) was dissolved in PBS (phosphate buffered saline) and injected intravenously to a mini pig (Yutacan Micropig). One week after the IAA administration, retinal degeneration was confirmed by retinal fundus photography and fluorescence (Experimental eye research 2012. 97, 137-147), and a schematic diagram illustrating the eye drop instillation of the compounds is shown in FIG. 12.
The eye drop instillation of the compounds of the invention was performed from a day before the IAA administration as shown in FIG. 12. 7 days after the induction of retinal degeneration in the pig, retinal fundus photographs were taken and the results are shown in FIG. 13.

The test system is the same in data set [4]. As to the kind of experiment: Drug efficacy by ERG (electroretinography) 2. The class given is in vivo. As to the method:
The experiment was performed by the same manner as described in Experimental Example 10 except that a dry macular degeneration pig model was used instead of the dry macular degeneration rabbit model.

Each structure is given as a SMILES string.

Take `C[C@H]1c2cccc(O)c2C(=O)C2=C(O)[C@]3(O)C(=O)C(C(N)=O)=C(O)[C@@H](N(C)C)[C@@H]3[C@@H](O)[C@@H]21` [Comparative Example3-HC, doxycycline]: the solubility in water entry in data set [1] was “well dissolved in water”. Also, the “response compared to normal (100%)” value in data set [2] (FIG. 11, listed as 3-HC) is recorded as 66.9%; in data set [2] (FIG. 11, listed as Comparative Example 3-HC) it was 66.9%. Also, the Wave ratio in data set [2] (SI model, ERG wave A after one week, eye drops 100 μl twice a day, Comparative Example 3 oral 10 mg/rabbit once a day, Normal = 1.00) is 0.67; in data set [4] (IAA model, ERG wave A, Normal = 1.00), 0.38. In addition, the “Drug efficacy (%)” value is 31% in data set [2] (SI model, Normal = 100, Veh. = 0); 31% in data set [2] (SI model, Normal = 100, Veh. = 0, listed as Comparative Example 3 (HC)); 31% in data set [2] (SI model, Normal = 100, Veh. = 0, listed as Comparative Example 3-HC); 18% in data set [4] (IAA model, ERG, Normal = 100, Veh. = 0). Further, the retinal fundus photographs result in data set [3] is “damaged areas (*) were observed”. For the same molecule, the “wave A response” value in data set [4] (ERG, FIG. 14 and 15) was “wave A response was reduced”.
